Target: T1, TAFIa (Homo sapiens, UniProt Q96IY4)
T1 sequence (Q96IY4 115-423): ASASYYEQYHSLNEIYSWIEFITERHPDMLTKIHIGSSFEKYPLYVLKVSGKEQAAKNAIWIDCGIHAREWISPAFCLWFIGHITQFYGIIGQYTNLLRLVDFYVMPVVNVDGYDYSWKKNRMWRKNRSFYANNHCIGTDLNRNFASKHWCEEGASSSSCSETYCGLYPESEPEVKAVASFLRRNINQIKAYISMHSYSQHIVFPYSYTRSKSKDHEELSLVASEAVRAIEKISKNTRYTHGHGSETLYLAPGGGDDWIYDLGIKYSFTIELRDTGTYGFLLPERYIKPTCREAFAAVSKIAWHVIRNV
Assay: Inhibition of TAFIa (hippuryl-Arg test)
Type: biochemical
Settings: TAFIa 2 nM, hippuryl-arginine 5 mM, 45 minutes, relative to control containing the carrier; for inhibition at 0.01 µM: compound at 10 nM; for inhibition at 0.02 µM: compound at 20 nM
Description: Human TAFI (4 nM) is incubated with human thrombin (10 nM) and human thrombomodulin (5 nM) in the presence of calcium (10 mM). After incubation for 20 minutes, the activation reaction is stopped by addition of PPACK (1 μM final), an irreversible thrombin inhibitor.
The reactions take place in Hepes buffer (25 mM Hepes, 137 mM NaCl, 3.5 mM KCl)+0.1% bovine albumin, pH 7.4 at 28° C. and with stirring.
The test compound is added to the solution of TAFIa (2 nM) and incubated for 45 minutes in the presence of hippuryl-arginine (5 mM). The reaction is stopped by addition of hydrochloric acid (1M) neutralised subsequently with sodium hydroxide (1M), and then the mixture is buffered with disodium hydroxyphosphate (1M pH 7.4). […] The reaction mixture is stirred (vortex) and then centrifuged. The supernatant is transferred to a 96-well microplate, and the absorbance is measured using a spectrophotometer at 405 nm (Spectramax plus, Molecular Devices).
The OD value of a well containing the reagents without TAFI is subtracted from all the OD values measured. The percentage inhibition of TAFIa at a given concentration of the test compound is determined by means of the following formula: % inhibition=100−[(OD compound×100)/OD carrier]
The compounds are evaluated at 10 nM and 20 nM under the experimental conditions described above and the results are expressed as the percentage inhibition relative to a control containing the carrier in the absence of compound.

Row | Compound | inhibition at 0.01 µM | inhibition at 0.02 µM
1 | NCCCC[C@@]1(C(=O)O)CN(Cc2ccc(O)cc2-c2ccc(F)cc2)CCP1(=O)O [Example 228, (3S)-3-(4-AMINOBUTYL)-1-[[2-(4-FLUOROPHENYL)-4-HYDROXYPHENYL]-METHYL]-4-HYDROXY-4-OXO-1,4-AZAPHOSPHINANE-3-CARBOXYLIC ACID] | 63% | 82%
2 | COc1cccc(-c2ccccc2CN2CCP(=O)(O)[C@](CCCCN)(C(=O)O)C2)c1OC [Example 207, (3S)-3-(4-AMINOBUTYL)-1-[[2-(2,3-DIMETHOXYPHENYL)PHENYL]METHYL]-4-HYDROXY-4-OXO-1,4-AZAPHOSPHINANE-3-CARBOXYLIC ACID] | 71% | 85%
3 | NCCCC[C@@]1(C(=O)O)CN(Cc2ccc(F)cc2-c2ccncc2)CCP1(=O)O [Example 192, (3S)-3-(4-AMINOBUTYL)-1-[(4-FLUORO-2-PYRIDIN-4-YLPHENYL)METHYL]-4-HYDROXY-4-OXO-1,4-AZAPHOSPHINANE-3-CARBOXYLIC ACID] | 77% | 91%
4 | COc1ccc(-c2cc(F)ccc2CN2CCP(=O)(O)[C@](CCCCN)(C(=O)O)C2)cc1 [Example 187, (3S)-3-(4-AMINOBUTYL)-1-[[4-FLUORO-2-(4-METHOXYPHENYL)PHENYL]-METHYL]-4-HYDROXY-4-OXO-1,4-AZAPHOSPHINANE-3-CARBOXYLIC ACID] | 74% | 97%
5 | NCCCC[C@@]1(C(=O)O)CN(Cc2ccc(F)cc2-c2ccc(F)c(O)c2)CCP1(=O)O [Example 251, (3S)-3-(4-AMINOBUTYL)-1-[[4-FLUORO-2-(4-FLUORO-3-HYDROXYPHENYL)-PHENYL]METHYL]-4-HYDROXY-4-OXO-1,4-AZAPHOSPHINANE-3-CARBOXYLIC ACID] | 70% | 90%
6 | NCCCC[C@@]1(C(=O)O)CN(Cc2ccc(F)cc2-c2cncnc2)CCP1(=O)O [Example 234, (3S)-3-(4-AMINOBUTYL)-1-[(4-FLUORO-2-PYRIMIDIN-5-YLPHENYL)METHYL]-4-HYDROXY-4-OXO-1,4-AZAPHOSPHINANE-3-CARBOXYLIC ACID] | 68% | 79%
7 | NCCCC[C@@]1(C(=O)O)CN(Cc2ccc(F)cc2-c2cccnc2)CCP1(=O)O [Example 190, (3S)-3-(4-AMINOBUTYL)-1-[(4-FLUORO-2-PYRIDIN-3-YLPHENYL)METHYL]-4-HYDROXY-4-OXO-1,4-AZAPHOSPHINANE-3-CARBOXYLIC ACID] | 88% | 95%
8 | Cc1ccc(-c2cc(Cl)ccc2CN2CCP(=O)(O)[C@](CCCCN)(C(=O)O)C2)cc1 [Example 218, (3S)-3-(4-AMINOBUTYL)-1-[[4-CHLORO-2-(4-METHYLPHENYL)PHENYL]METHYL]-4-HYDROXY-4-OXO-1,4-AZAPHOSPHINANE-3-CARBOXYLIC ACID] | 67% | 83%
9 | NCCCC[C@@]1(C(=O)O)CN(Cc2ccc(F)cc2-c2cnc3ccccn23)CCP1(=O)O [Example 220, (3S)-3-(4-AMINOBUTYL)-1-[(4-FLUORO-2-IMIDAZO[1,2-A]PYRIDIN-3-YLPHENYL)METHYL]-4-HYDROXY-4-OXO-1,4-AZAPHOSPHINANE-3-CARBOXYLIC ACID] | 83% | 97%
10 | Cn1cncc1-c1cc(F)ccc1CN1CCP(=O)(O)[C@](CCCCN)(C(=O)O)C1 [Example 217, (3S)-3-(4-AMINOBUTYL)-1-[4-FLUORO-2-(1-METHYL-1H-IMIDAZOL-5-YL)BENZYL]-4-HYDROXY-4-OXO-1,4-AZAPHOSPHINANE-3-CARBOXYLIC ACID] | 66% | 83%
11 | NCCCC[C@@]1(C(=O)O)CN(Cc2ccccc2-c2cccc3cnccc23)CCP1(=O)O [Example 214, (3S)-3-(4-AMINOBUTYL)-4-HYDROXY-1-[(2-ISOQUINOLIN-5-YLPHENYL)-METHYL]-4-OXO-1,4-AZAPHOSPHINANE-3-CARBOXYLIC ACID] | 79% | 91%
12 | COc1ccc(-c2cc(O)ccc2CN2CCP(=O)(O)[C@](CCCCN)(C(=O)O)C2)cn1 [Example 242, (3S)-3-(4-AMINOBUTYL)-4-HYDROXY-1-[[4-HYDROXY-2-(6-METHOXYPYRIDIN-3-YL)PHENYL]METHYL]-4-OXO-1,4-AZAPHOSPHINANE-3-CARBOXYLIC ACID] | 75% | 88%
13 | COc1cc(-c2cc(F)ccc2CN2CCP(=O)(O)[C@](CCCCN)(C(=O)O)C2)ccn1 [Example 221, (3S)-3-(4-AMINOBUTYL)-1-[[4-FLUORO-2-(2-METHOXYPYRIDIN-4-YL)PHENYL]-METHYL]-4-HYDROXY-4-OXO-1,4-AZAPHOSPHINANE-3-CARBOXYLIC ACID] | 75% | 88%
14 | NCCCC[C@@]1(C(=O)O)CN(Cc2ccccc2-c2ccc(O)nc2)CCP1(=O)O [Example 240, (3S)-3-(4-AMINOBUTYL)-4-HYDROXY-1-[[2-(6-HYDROXYPYRIDIN-3-YL)PHENYL]METHYL]-4-OXO-1,4-AZAPHOSPHINANE-3-CARBOXYLIC ACID] | 66% | 80%
15 | NCCCC[C@@]1(C(=O)O)CN(Cc2ccccc2-c2cccnc2)CCP1(=O)O [Example 184, (3S)-3-(4-AMINOBUTYL)-4-HYDROXY-4-OXO-1-[(2-PYRIDIN-3-YLPHENYL)-METHYL]-1,4-AZAPHOSPHINANE-3-CARBOXYLIC ACID] | 67% | 95%
16 | Cn1nc(C(F)(F)F)cc1-c1ccccc1CN1CCP(=O)(O)[C@](CCCCN)(C(=O)O)C1 [Example 232, (3S)-3-(4-AMINOBUTYL)-4-HYDROXY-1-[[2-[2-METHYL-5-(TRIFLUOROMETHYL)-PYRAZOL-3-YL]PHENYL]METHYL]-4-OXO-1,4-AZAPHOSPHINANE-3-CARBOXYLIC ACID] | 80% | 89%

More lines, now with the values ahead:

Row | inhibition at 0.01 µM | inhibition at 0.02 µM | Compound
17 | 60% | 73% | NCCCCC1(C(=O)O)CN(Cc2ccccc2-c2cccc(-c3ccccc3)c2)CCP1(=O)O (stereo not drawn) [Example 49, 3-(4-AMINOBUTYL)-4-HYDROXY-4-OXO-1-[[2-(3-PHENYLPHENYL)PHENYL]-METHYL]-1,4-AZAPHOSPHINANE-3-CARBOXYLIC ACID]
18 | 84% | 91% | NCCCC[C@@]1(C(=O)O)CN(Cc2ccc(O)cc2-c2cccs2)CCP1(=O)O [Example 227, (3S)-3-(4-AMINOBUTYL)-4-HYDROXY-1-[(4-HYDROXY-2-THIOPHEN-2-YLPHENYL)METHYL]-4-OXO-1,4-AZAPHOSPHINANE-3-CARBOXYLIC ACID]
19 | 76% | 91% | COc1ccc(-c2ccccc2CN2CCP(=O)(O)C(CCCCN)(C(=O)O)C2)cn1 (stereo not drawn) [Example 165, 3-(4-AMINOBUTYL)-4-HYDROXY-1-[[2-(6-METHOXYPYRIDIN-3-YL)PHENYL]-METHYL]-4-OXO-1,4-AZAPHOSPHINANE-3-CARBOXYLIC ACID]
20 | 69% | 84% | COc1cc(-c2cc(F)ccc2CN2CCP(=O)(O)[C@](CCCCN)(C(=O)O)C2)ccc1F [Example 201, (3S)-3-(4-AMINOBUTYL)-1-[[4-FLUORO-2-(4-FLUORO-3-METHOXYPHENYL)-PHENYL]METHYL]-4-HYDROXY-4-OXO-1,4-AZAPHOSPHINANE-3-CARBOXYLIC ACID]
21 | 64% | 80% | NCCCC[C@@]1(C(=O)O)CN(Cc2ccccc2-c2cccc(Cl)c2)CCP1(=O)O [Example 194, (3S)-3-(4-AMINOBUTYL)-1-[[2-(3-CHLOROPHENYL)PHENYL]METHYL]-4-HYDROXY-4-OXO-1,4-AZAPHOSPHINANE-3-CARBOXYLIC ACID]
22 | 69% | 85% | COc1cccc(-c2cc(F)ccc2CN2CCP(=O)(O)[C@](CCCCN)(C(=O)O)C2)c1 [Example 185, (3S)-3-(4-AMINOBUTYL)-1-[[4-FLUORO-2-(3-METHOXYPHENYL)PHENYL]-METHYL]-4-HYDROXY-4-OXO-1,4-AZAPHOSPHINANE-3-CARBOXYLIC ACID]
23 | 85% | 89% | Cn1nccc1-c1cc(O)ccc1CN1CCP(=O)(O)[C@](CCCCN)(C(=O)O)C1 [Example 247, (3S)-3-(4-AMINOBUTYL)-4-HYDROXY-1-[[4-HYDROXY-2-(2-METHYLPYRAZOL-3-YL)PHENYL]METHYL]-4-OXO-1,4-AZAPHOSPHINANE-3-CARBOXYLIC ACID]
24 | 77% | 91% | NCCCC[C@@]1(C(=O)O)CN(Cc2ccc(F)cc2-c2ccc(O)nc2)CCP1(=O)O [Example 241, (3S)-3-(4-AMINOBUTYL)-1-[[4-FLUORO-2-(6-HYDROXYPYRIDIN-3-YL)PHENYL]-METHYL]-4-HYDROXY-4-OXO-1,4-AZAPHOSPHINANE-3-CARBOXYLIC ACID]

From US10138260B2, “Compounds of phosphinanes and azaphosphinanes, a process for their preparation and pharmaceutical compositions containing them” (LES LABORATOIRES SERVIER, priority 2016, dated 2018)
